Results: patent US6737383B1, “Herbicidal oxadiazolidines” (priority 1999, dated 2004)

Experiments:
surinam grass = experiment: Test B pre/postemergence surinam grass; assay type: in vivo, Brachiaria decumbens
Method in brief: (§1)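 Response is a visual 0-to-10 score relative to untreated plants, where 0 means no effect and 10 means complete control, taken twelve to sixteen days after application. Treatments went onto soil at planting and onto foliage of 1- to 4-leaf plants, using a surfactant-containing non-phytotoxic solvent.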

bamyardgrass = experiment: Test B flood test barnyardgrass; assay type: in vivo, Echinochloa crus-galli
Method in brief: (§2)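 Read-out is a visual response score from 0 (no effect) to 10 (complete control), assigned by comparison with untreated controls. Treatment was applied at the 2-leaf stage, and plants stayed in the greenhouse for twelve to sixteen days before scoring.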

morningglory = experiment: Test B pre/postemergence morningglory; assay type: in vivo, Ipomoea hederacea
Method in brief: as §1

soybean = experiment: Test B pre/postemergence soybean; assay type: in vivo, Glycine max
Method in brief: as §1

smallflower flatsedge = experiment: Test B flood test smallflower flatsedge; assay type: in vivo, Cyperus difformis
Method in brief: as §2

bedstraw = experiment: Test B pre/postemergence bedstraw; assay type: in vivo, Galium aparine
Method in brief: as §1

wild oat = experiment: Test B pre/postemergence wild oat; assay type: in vivo, Avena fatua
Method in brief: as §1

corn = experiment: Test B pre/postemergence corn; assay type: in vivo, Zea mays
Method in brief: as §1

cocklebur = experiment: Test B pre/postemergence cocklebur; assay type: in vivo, Xanthium strumarium
Method in brief: as §1

sugar beet = experiment: Test B pre/postemergence sugar beet; assay type: in vivo, Beta vulgaris
Method in brief: as §1

duck salad = experiment: Test B flood test duck salad; assay type: in vivo, Heteranthera limosa
Method in brief: as §2

crabgrass = experiment: Test B pre/postemergence crabgrass; assay type: in vivo, Digitaria sanguinalis
Method in brief: as §1

velvetleaf = experiment: Test B pre/postemergence velvetleaf; assay type: in vivo, Abutilon theophrasti
Method in brief: as §1

rice = experiment: Test B flood test rice; assay type: in vivo, Oryza sativa
Method in brief: as §2

pigweed = experiment: Test B pre/postemergence pigweed; assay type: in vivo, Amaranthus retroflexus
Method in brief: as §1

rape = experiment: Test B pre/postemergence rape; assay type: in vivo, Brassica napus
Method in brief: as §1

[1] = Preemergence, Rate 62 g/ha, scale of 0 to 10 where 0 is no effect and 10 is complete control
[2] = Preemergence, Rate 500 g/ha, scale of 0 to 10 where 0 is no effect and 10 is complete control
[3] = Rate 62 g/ha, Postemergence, scale of 0 to 10 where 0 is no effect and 10 is complete control
[4] = Rate 125 g/ha, Preemergence, scale of 0 to 10 where 0 is no effect and 10 is complete control
[5] = Rate 500 g/ha, Postemergence, scale 0 to 10, 0 no effect, 10 complete control
[6] = Rate 62 g/ha, headed Pre-emergence (flood test species), scale 0 to 10 (0 no effect, 10 complete control)
[7] = Rate 125 g/ha, Pre-emergence, flood test species, scale 0 to 10 where 0 is no effect and 10 is complete control
[8] = Rate 250 g/ha, Pre-emergence, flood-test species, scale 0 to 10, 0 is no effect, 10 is complete control
[9] = Rate 500 g/ha, Pre-emergence, flood test species, scale 0 to 10 (0 no effect, 10 complete control)
[10] = Preemergence, Rate 250 g/ha, scale of 0 to 10 where 0 is no effect and 10 is complete control
[11] = Rate 125 g/ha, Postemergence, scale 0 to 10

Q: CCc1ccc(N(C(=O)n2oc(=O)n(-c3ccccc3C)c2=O)C(C)C)cc1 [Compound 230] was tested. Which “B. signalgrass plant response rating” value (surinam grass; [1]) did it give?
A: 0

Q: What about the “B. signalgrass plant response rating” value (surinam grass; Preemergence, Rate 250 g/ha, scale 0 to 10, 0 is no effect, 10 is complete control) of the same compound?
A: 0

Q: And the “Plant response rating, B. signalgrass” value (surinam grass; [2])?
A: 0

Q: And the “B. signalgrass plant response rating” value (surinam grass; [3])?
A: 0

Q: And the “B. signalgrass plant response rating” value (surinam grass; Rate 125 g/ha, Postemergence, scale 0 (no effect) to 10 (complete control))?
A: 0

Q: What about the “B. signalgrass plant response rating” value (surinam grass; [4]) of the same compound?
A: 0

Q: And the “Plant response rating (0 to 10; 0 is no effect, 10 is complete control), B. signalgrass” value (surinam grass; Rate 250 g/ha, Postemergence)?
A: 0

Q: What about the “B. signalgrass plant response rating” value (surinam grass; [5]) of the same compound?
A: 0

Q: And the “Barnyardgrass plant response rating” value (bamyardgrass; [6])?
A: 0

Q: And the “Barnyardgrass plant response rating” value (bamyardgrass; [7])?
A: 0

Q: And the “Barnyardgrass plant response rating” value (bamyardgrass; [8])?
A: 0

Q: And the “Barnyardgrass plant response rating” value (bamyardgrass; [9])?
A: 0

Q: What about the “Morningglory plant response rating” value (morningglory; [1]) of the same compound?
A: 0

Q: And the “Morningglory plant response rating” value (morningglory; [10])?
A: 0

Q: What about the “Plant response rating, Morningglory” value (morningglory; [2]) of the same compound?
A: 2

Q: What about the “Morningglory plant response rating” value (morningglory; [3]) of the same compound?
A: 0

Q: And the “Morningglory plant response rating” value (morningglory; [11])?
A: 2

Q: What about the “Morningglory plant response rating” value (morningglory; [4]) of the same compound?
A: 0

Q: What about the “Plant response rating (0 to 10; 0 is no effect, 10 is complete control), Morningglory” value (morningglory; Rate 250 g/ha, Postemergence) of the same compound?
A: 2

Q: And the “Morningglory plant response rating” value (morningglory; [5])?
A: 7

Q: And the “Soybean plant response rating” value (soybean; [1])?
A: 0

Q: And the “Soybean plant response rating” value (soybean; [10])?
A: 0

Q: What about the “Plant response rating, Soybean” value (soybean; [2]) of the same compound?
A: 0

Q: And the “Soybean plant response rating” value (soybean; [3])?
A: 0

Q: What about the “Soybean plant response rating” value (soybean; [11]) of the same compound?
A: 0

Q: What about the “Soybean plant response rating” value (soybean; [4]) of the same compound?
A: 0

Q: What about the “Plant response rating (0 to 10; 0 is no effect, 10 is complete control), Soybean” value (soybean; Rate 250 g/ha, Postemergence) of the same compound?
A: 4

Q: And the “Soybean plant response rating” value (soybean; [5])?
A: 5

Q: What about the “S. Flatsedge plant response rating” value (smallflower flatsedge; [6]) of the same compound?
A: 0

Q: And the “S. Flatsedge plant response rating” value (smallflower flatsedge; [7])?
A: 0

Q: And the “S. Flatsedge plant response rating” value (smallflower flatsedge; [8])?
A: 0

Q: What about the “S. Flatsedge plant response rating” value (smallflower flatsedge; [9]) of the same compound?
A: 0

Q: And the “Bedstraw plant response rating” value (bedstraw; [1])?
A: 0

Q: And the “Bedstraw plant response rating” value (bedstraw; [10])?
A: 0

Q: And the “Plant response rating, Bedstraw” value (bedstraw; [2])?
A: 0

Q: And the “Bedstraw plant response rating” value (bedstraw; [3])?
A: 0

Q: What about the “Bedstraw plant response rating” value (bedstraw; [11]) of the same compound?
A: 0

Q: What about the “Bedstraw plant response rating” value (bedstraw; [4]) of the same compound?
A: 0

Q: And the “Plant response rating (0 to 10; 0 is no effect, 10 is complete control), Bedstraw” value (bedstraw; Rate 250 g/ha, Postemergence)?
A: 0

Q: What about the “Bedstraw plant response rating” value (bedstraw; [5]) of the same compound?
A: 0

Q: And the “Wild oats plant response rating” value (wild oat; [1])?
A: 0

Q: And the “Wild oats plant response rating” value (wild oat; [10])?
A: 0

Q: What about the “Plant response rating, Wild oats” value (wild oat; [2]) of the same compound?
A: 0

Q: And the “Wild oats plant response rating” value (wild oat; [3])?
A: 0

Q: What about the “Wild oats plant response rating” value (wild oat; [11]) of the same compound?
A: 0

Q: And the “Wild oats plant response rating” value (wild oat; [4])?
A: 0

Q: What about the “Plant response rating (0 to 10; 0 is no effect, 10 is complete control), Wild oats” value (wild oat; Rate 250 g/ha, Postemergence) of the same compound?
A: 0

Q: And the “Wild oats plant response rating” value (wild oat; [5])?
A: 0

Q: And the “Corn plant response rating” value (corn; [1])?
A: 0

Q: What about the “Corn plant response rating” value (corn; [10]) of the same compound?
A: 0

Q: What about the “Plant response rating, Corn” value (corn; [2]) of the same compound?
A: 0

Q: And the “Corn plant response rating” value (corn; [3])?
A: 0

Q: What about the “Corn plant response rating” value (corn; [11]) of the same compound?
A: 0

Q: And the “Corn plant response rating” value (corn; [4])?
A: 0

Q: And the “Plant response rating (0 to 10; 0 is no effect, 10 is complete control), Corn” value (corn; Rate 250 g/ha, Postemergence)?
A: 0

Q: And the “Corn plant response rating” value (corn; [5])?
A: 0

Q: What about the “Cocklebur plant response rating” value (cocklebur; [1]) of the same compound?
A: 0

Q: And the “Cocklebur plant response rating” value (cocklebur; [10])?
A: 0

Q: What about the “Plant response rating, Cocklebur” value (cocklebur; [2]) of the same compound?
A: 0

Q: What about the “Cocklebur plant response rating” value (cocklebur; [3]) of the same compound?
A: 0

Q: What about the “Cocklebur plant response rating” value (cocklebur; [11]) of the same compound?
A: 0

Q: What about the “Cocklebur plant response rating” value (cocklebur; [4]) of the same compound?
A: 0

Q: What about the “Plant response rating (0 to 10; 0 is no effect, 10 is complete control), Cocklebur” value (cocklebur; Rate 250 g/ha, Postemergence) of the same compound?
A: 0

Q: What about the “Cocklebur plant response rating” value (cocklebur; [5]) of the same compound?
A: 0

Q: And the “Sugarbeets plant response rating” value (sugar beet; [1])?
A: 0

Q: And the “Sugarbeets plant response rating” value (sugar beet; [10])?
A: 0

Q: What about the “Plant response rating, Sugarbeets” value (sugar beet; [2]) of the same compound?
A: 0

Q: What about the “Sugarbeets plant response rating” value (sugar beet; [3]) of the same compound?
A: 0

Q: What about the “Sugarbeets plant response rating” value (sugar beet; [11]) of the same compound?
A: 0

Q: What about the “Sugarbeets plant response rating” value (sugar beet; [4]) of the same compound?
A: 0

Q: What about the “Plant response rating (0 to 10; 0 is no effect, 10 is complete control), Sugarbeets” value (sugar beet; Rate 250 g/ha, Postemergence) of the same compound?
A: 0

Q: And the “Sugarbeets plant response rating” value (sugar beet; [5])?
A: 0

Q: What about the “Ducksalad plant response rating” value (duck salad; [6]) of the same compound?
A: 0

Q: What about the “Ducksalad plant response rating” value (duck salad; [7]) of the same compound?
A: 0

Q: And the “Ducksalad plant response rating” value (duck salad; [8])?
A: 0

Q: And the “Ducksalad plant response rating” value (duck salad; [9])?
A: 0

Q: What about the “Crabgrass plant response rating” value (crabgrass; [1]) of the same compound?
A: 1

Q: What about the “Crabgrass plant response rating” value (crabgrass; [10]) of the same compound?
A: 7

Q: What about the “Plant response rating, Crabgrass” value (crabgrass; [2]) of the same compound?
A: 9

Q: What about the “Crabgrass plant response rating” value (crabgrass; [3]) of the same compound?
A: 0

Q: And the “Crabgrass plant response rating” value (crabgrass; [11])?
A: 0

Q: And the “Crabgrass plant response rating” value (crabgrass; [4])?
A: 1

Q: What about the “Plant response rating (0 to 10; 0 is no effect, 10 is complete control), Crabgrass” value (crabgrass; Rate 250 g/ha, Postemergence) of the same compound?
A: 0

Q: What about the “Crabgrass plant response rating” value (crabgrass; [5]) of the same compound?
A: 2

Q: What about the “Velvetleaf plant response rating” value (velvetleaf; [1]) of the same compound?
A: 0

Q: What about the “Velvetleaf plant response rating” value (velvetleaf; [10]) of the same compound?
A: 0

Q: And the “Plant response rating, Velvetleaf” value (velvetleaf; [2])?
A: 0

Q: What about the “Velvetleaf plant response rating” value (velvetleaf; [3]) of the same compound?
A: 0

Q: And the “Velvetleaf plant response rating” value (velvetleaf; [11])?
A: 0

Q: What about the “Velvetleaf plant response rating” value (velvetleaf; [4]) of the same compound?
A: 0

Q: And the “Plant response rating (0 to 10; 0 is no effect, 10 is complete control), Velvetleaf” value (velvetleaf; Rate 250 g/ha, Postemergence)?
A: 0

Q: What about the “Velvetleaf plant response rating” value (velvetleaf; [5]) of the same compound?
A: 0

Q: What about the “Rice plant response rating” value (rice; [6]) of the same compound?
A: 0

Q: And the “Rice plant response rating” value (rice; [7])?
A: 0

Q: And the “Rice plant response rating” value (rice; [8])?
A: 0

Q: And the “Rice plant response rating” value (rice; [9])?
A: 0

Q: And the “Redroot pigweed plant response rating” value (pigweed; [1])?
A: 0

Q: What about the “Redroot pigweed plant response rating” value (pigweed; [10]) of the same compound?
A: 0

Q: And the “Plant response rating, Redroot pigweed” value (pigweed; [2])?
A: 0

Q: And the “Redroot pigweed plant response rating” value (pigweed; [3])?
A: 0

Q: And the “Redroot pigweed plant response rating” value (pigweed; [11])?
A: 0

Q: And the “Redroot pigweed plant response rating” value (pigweed; [4])?
A: 0

Q: And the “Plant response rating (0 to 10; 0 is no effect, 10 is complete control), Redroot pigweed” value (pigweed; Rate 250 g/ha, Postemergence)?
A: 0

Q: And the “Redroot pigweed plant response rating” value (pigweed; [5])?
A: 0

Q: What about the “Rape plant response rating” value (rape; [1]) of the same compound?
A: 0

Q: What about the “Rape plant response rating” value (rape; [10]) of the same compound?
A: 0

Q: And the “Plant response rating, Rape” value (rape; [2])?
A: 0

Q: What about the “Rape plant response rating” value (rape; [3]) of the same compound?
A: 0

Q: And the “Rape plant response rating” value (rape; [11])?
A: 0

Q: What about the “Rape plant response rating” value (rape; [4]) of the same compound?
A: 0

Q: And the “Plant response rating (0 to 10; 0 is no effect, 10 is complete control), Rape” value (rape; Rate 250 g/ha, Postemergence)?
A: 0

Q: And the “Rape plant response rating” value (rape; [5])?
A: 0
